Series [1] has as its system Mouse mammary carcinoma 4T-1 cells. The experiment in a line: In vivo cancer metastasis experiment. Also on record: species or system Balb/c mice. The settings on record: mice, 30 mg/kg once a day for 3 weeks. The method, then:
(§1) On MMP2 activity (FIG. 37) and cell migration (FIGS. 38 and 39), KL1-dose-dependent effect was measured. For the test on the cell migration, the cells were treated with KL1 for 8 hours. In FIG. 40, in order to see the effect of KL1 on protein synthesis of cells, A549 cells were treated with KL1 at indicated concentrations, and starved in methionine-free medium. Then, [^35S] methionine was added thereto for 2 hours. Then, the cells were incubated in complete medium for 4 hours, and the level of added methionine was measured by a scintillation counter. In FIG. 41, KL1-dose-dependent cytotoxicity was measured by using A549 cells. In FIG. 42, the effect of KL1 on cancer metastasis was measured according to the method as described above. In each group, 6 mice were included, and KL1 was abdominally injected for 3 weeks, in a dose of 30 mg/kg once a day. Then, the mice were sacrificed. The metastasized tumor nodules over 1 mm in diameter were counted, and their average was calculated (left). […]
Mouse mammary carcinoma 4T-1 cells were transfected with si-KRS, si-DRS or si-control, and incubated for 24 hours. […] The growth of a tumor was monitored by measuring a tumor size three times per week. The whole body weights were also simultaneously measured. […] The number and size of metastatic tumor nodules in lungs were measured, and tumor nodules of larger than 1 mm in diameter were separately recorded. […]

In series [2] the test system is A549 cells. The experiment in a line: Cytotoxicity analysis (EZ-cytox). It is filed as cell-based, human. The note with it: KL1 at indicated concentrations, 24 hours. The method, then:
10^4 A549 cells were placed in a 96-well plate, and treated with the compound represented by Formula 15, at indicated concentrations for 24 hours. Then, EZ-cytox (Daeil Lab, Korea) compound was added in an amount of 10 μl to each well in accordance with the manufacturer's instruction, followed by cultivation for 2 hours. A microplate reader was used to measure the absorbance at 420 nm.

The next series addresses T1, GST-KRS (Homo sapiens, UniProt Q15046).
T1 construct: made in house; host or cells: E. coli Rosetta (DE3)
Nature of the series: Surface plasmon resonance assay (BIAcore3000). The settings on record: GST-KRS immobilized on CM5 chip, binding to GST subtracted, 25° C., 1:1 binding. The method, then: As a control, an OD level of cells treated with DMSO was measured. FIG. 32 is a photograph showing cell growth in wells containing yeast cells having indicated interaction pairs in the presence or absence of CAND-KL1. In FIG. 33, in 293 cells, through co-immunoprecipitation, the KL1-dose-dependent effect on the interaction between KRS and 67LR was tested. The cells were treated with KL1 for 3 hours, 67LR was immunoprecipitated, and co-precipitation of KRS was determined by western blotting. In FIG. 34, in the presence of KL1 in indicated levels, a laminin receptor labeled with radioisotope was mixed with GST-KRS (1 μg). GST-KRS was precipitated with glutathione-Sepharose beads, and co-precipitated laminin receptor was detected with autoradiography. In FIG. 35, in A549 cells, the effect of KL1 on the intracellular level of 67LR and 37LRP was tested with western blotting. […] GST-KRS was immobilized on a CM5 Sensor Chip, and the binding was measured by a resonance unit (RU) at indicated concentrations (indicated by different colors). […]
The interaction between KRS and the compound (Formula 15) was tested by BIAcore3000 (GE healthcare). […] Then, the binding was measured by a change in a resonance unit (RU). The specific binding activity of CAND-KL1 to GST-KRS was measured by subtracting binding to GST in sensorgram. […]
(Surface plasmon resonance follows binding to a sensor surface in real time, without labels.)

For series [3], the system named is A549 cells. The experiment in a line: Cell migration assay (transwell membrane). It is filed as cell-based, human. The settings on record: KL1 in different amounts, 8 hours. The method, then: as §1, with “Then, the mice were sacrificed.” left out
Cell migration was measured by using 24-well transwell chambers with polycarbonate membranes (8.0 μm pore size, Costar) as previously described (Park, S. G. et al. Human lysyl-tRNA synthetase is secreted to trigger pro-inflammatory response, Proc. Natl. Acad. Sci. USA 102, 6356-6361 (2005)). […] The migrated cells (attached to the lower face of the membrane) were counted at four randomly selected sites by a microscope (×20).

Entries after “also recorded” stand apart in the source; their conditions may differ.

T1 sequence (Q15046 whole entry): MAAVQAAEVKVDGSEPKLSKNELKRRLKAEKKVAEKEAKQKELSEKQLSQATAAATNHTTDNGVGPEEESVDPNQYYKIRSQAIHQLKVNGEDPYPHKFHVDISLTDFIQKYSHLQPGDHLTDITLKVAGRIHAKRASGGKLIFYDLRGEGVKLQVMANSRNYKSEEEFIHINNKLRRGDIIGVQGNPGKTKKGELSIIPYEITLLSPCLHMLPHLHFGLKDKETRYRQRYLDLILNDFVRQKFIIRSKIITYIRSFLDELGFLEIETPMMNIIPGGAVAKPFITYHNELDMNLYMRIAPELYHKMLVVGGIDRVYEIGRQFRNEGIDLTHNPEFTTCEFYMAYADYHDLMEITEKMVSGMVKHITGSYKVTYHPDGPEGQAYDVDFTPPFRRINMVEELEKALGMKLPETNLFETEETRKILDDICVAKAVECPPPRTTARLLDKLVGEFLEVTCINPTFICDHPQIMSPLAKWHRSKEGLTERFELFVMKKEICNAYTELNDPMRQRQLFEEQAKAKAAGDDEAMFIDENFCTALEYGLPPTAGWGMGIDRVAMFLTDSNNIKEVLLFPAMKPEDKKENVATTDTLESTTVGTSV

As to `CCC(C(=O)O)n1/c(=N/C(=O)c2ccc(C)cc2)sc2ccccc21` (centres unmarked) [Compound of formula 15, 2-[2-(4-Methyl-benzoylimino)-benzothiazol-3-yl]-butyric acid], in series [1] (abdominally injected, lung nodules over 1 mm in diameter), the “number of metastasized nodules” value is recorded as “significantly reduced”. Also, in series [1] (KL1 treated vs non-treated group, listed as KL1, 30 mg/kg), the “primary tumor growth (weight and size)” value was “no significant difference in weight and size; also recorded: did not affect”. The viability result in the series on A549 cells [2] is on record as “not influenced”. On GST-KRS, this compound came in with a Kd of roughly 2600 nM. Further, in the series on A549 cells [3], the cell migration result is on record as “inhibited”.

One may read the Kd as the free concentration of one partner at which half of the binding sites on the other are occupied at equilibrium, for simple one-to-one binding.

These data come from patent US10130611B2, “Use of benzo-heterocycle derivatives for preventing and treating cancer or for inhibiting cancer metastasis” (MEDICINAL BIOCONVERGENCE RESEARCH CENTER, priority 2009, dated 2018).
